Values joined by “and” are separate entries in the source; they are usually repeats but may differ in a detail not shown here. Equal entries are not always repeated.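 Grown in 96-well plates, cells were treated for 48 hours with each compound at five concentrations. Insufficient inhibition: endpoint recorded as highest concentration tested. Here, GI50 denotes the concentration required for 50% inhibition of growth. TGI is the concentration that stops growth completely.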
How the values were obtained:
Test in all cases: inhibition of tumour cell growth, NCI panel, 48 h
HCT-15 colon = system: HCT-15 colon
A549 NSCLC = system: A549 NSCLC
ACHN renal = system: ACHN renal
HCC-2998 colon = system: HCC-2998 colon
SNB-75 CNS = system: SNB-75 CNS
SN12C renal = system: SN12C renal
SR leukemia = system: SR leukemia
COLO 205 colon = system: COLO 205 colon
MDA-MB-435 = system: MDA-MB-435
CCRF-CEM leukemia = system: CCRF-CEM leukemia

| SMILES | GI50 (HCT-15 colon) | TGI (HCT-15 colon) | GI50 (A549 NSCLC) | TGI (A549 NSCLC) | GI50 (ACHN renal) | TGI (ACHN renal) | GI50 (HCC-2998 colon) | TGI (HCC-2998 colon) | TGI (SNB-75 CNS) | GI50 (SN12C renal) | TGI (SN12C renal) | GI50 (SR leukemia) | TGI (SR leukemia) | GI50 (COLO 205 colon) | TGI (COLO 205 colon) | GI50 (MDA-MB-435) | TGI (MDA-MB-435) | GI50 (CCRF-CEM leukemia) | TGI (CCRF-CEM leukemia) | GI50 (SNB-75 CNS) |
| --- | --- | --- | --- | --- | --- | --- | --- | --- | --- | --- | --- | --- | --- | --- | --- | --- | --- | --- | --- | --- |
| O=C1NC(=O)C(c2cnc3ccccn23)=C1c1cn2c3c(cc(F)cc13)CN(C(=O)N1CCCCC1)CC2 | 13.3 µM | 66.9 µM | 7.85 µM | 71.5 µM | 1.37 µM | > 72.5 µM | 14.6 µM | 32.8 µM | 46.3 µM | 9.54 µM | 54.6 µM | 1.84 µM | 29.1 µM | 11.4 µM | 36.9 µM | 14.6 µM | 40.3 µM | 2.69 µM | 49.3 µM | – |
| Cn1c2ccccc2c2c3c(c4c5cc(Br)ccc5n(C)c4c21)C(=O)N(O)C3=O | 0.199 µM | > 100 µM | 0.262 µM | > 100 µM | 0.0346 µM | 0.124 µM | 1.01 µM | > 100 µM | 0.659 µM | – | – | 0.0156 µM | 0.584 µM | – | – | 0.319 µM | > 100 µM | 0.0323 µM | 0.185 µM | 0.0595 µM |
| [Cl][Hg][c]1cc(Br)cc(Br)c1 | 1.6 µM | 3.22 µM | 12.9 µM | 30.4 µM | 3.83 µM | 14.8 µM | 2.08 µM | 4.29 µM | 3.43 µM | 1.61 µM | 3.56 µM | 0.866 µM | 3.52 µM | 2.14 µM | 4.97 µM | 1.8 µM | 3.82 µM | 1.32 µM | 4.22 µM | 1.24 µM |
| O=C(O)CCC(=O)c1ccc[nH]1 | – | > 100 µM | – | > 100 µM | – | > 100 µM | – | – | > 100 µM | – | > 100 µM | – | > 100 µM | – | > 100 µM | – | > 100 µM | – | – | – |
| C=C1C(=O)O[C@@H]2C[C@@H]1CC/C(C)=C/CC/C(C)=C/CC[C@@]2(C)O | 18.2 µM | 51.4 µM | 18.2 µM | 41.2 µM | 13 µM | 28.1 µM | 14 µM | 28.7 µM | 47.4 µM | – | – | 1.63 µM | 3.58 µM | 34.1 µM | 99.2 µM | 5.07 µM | 18.5 µM | – | – | 26.4 µM |
| CC(C)=CCNc1ncnc2c1ncn2C1OC(CO)C(O)C1O (stereo not drawn) | 1.05 µM | 36.8 µM | 2.85 µM | 299 µM | 0.987 µM | > 526 µM | 4.49 µM | 94.3 µM | 55.9 µM | 1.36 µM | > 408 µM | 0.799 µM | > 334 µM | 3.96 µM | 550 µM | 3.26 µM | > 1000 µM | 0.456 µM | 3.17 µM | 2.52 µM |
| N#CC(=C1C=CC(=NO)C=C1)c1ccccc1 | 2.22 µM | 12.3 µM | 4.58 µM | > 37.2 µM | 1.14 µM | 10.1 µM | 4.61 µM | 15 µM | 8.99 µM | 2.39 µM | 8.41 µM | 0.349 µM | 3.73 µM | 6.33 µM | 18.5 µM | 0.331 µM | 1.65 µM | 0.476 µM | 2.36 µM | 2.14 µM |
| Cn1cc(CO)c2c1C(=O)C=C(N1CC1)C2=O | < 0.01 µM | 0.0818 µM | < 0.01 µM | 3.68 µM | < 0.01 µM | 0.0102 µM | < 0.0122 µM | 0.049 µM | 0.0444 µM | < 0.01 µM | 0.027 µM | < 0.01 µM | 0.0145 µM | < 0.0187 µM | – | < 0.01 µM | 0.04 µM | 0.26 µM | 11.2 µM | < 0.01 µM |
| OC[C@H]1C[C@](O)(c2ccc(Cl)cc2)[C@@H](c2ccc(Cl)cc2)O1 | 31.7 µM | > 100 µM | 29.6 µM | 78.7 µM | 28 µM | 97.3 µM | 23.8 µM | 52.9 µM | 87.7 µM | 17 µM | 35.8 µM | 0.202 µM | 16.8 µM | 25.6 µM | 51.8 µM | 22.9 µM | 47.8 µM | – | – | 22.9 µM |
| CCN(CC)c1ccc2c(c1)OC(N)=C(C#N)C2c1cc(OC)c2c(c1)OCO2 (stereo not drawn) | 0.0349 µM | 3.93 µM | 0.0322 µM | > 100 µM | 0.101 µM | 6.7 µM | 0.0302 µM | 1.35 µM | 42.5 µM | 0.0537 µM | 6.09 µM | < 0.017 µM | 1.98 µM | 0.0377 µM | 0.424 µM | < 0.0108 µM | 0.0276 µM | 0.0308 µM | 1.71 µM | 0.02 µM |
| Cc1cc(I)cc(CN(C)CCCN2CCCCCCC2)c1O | 10.9 µM | 23.3 µM | 20.1 µM | 45.5 µM | 18.1 µM | 32.4 µM | 18.1 µM | 36.8 µM | 30.2 µM | 18 µM | 41.1 µM | 2.11 µM | 14.6 µM | 17.4 µM | 37.1 µM | 13.2 µM | 30.1 µM | 6.22 µM | 21.9 µM | 15.4 µM |
| Cc1c([N+](=O)[O-])ccc2c(NCCCN(C)C)ccnc12 | – | 32.7 µM | – | 40.5 µM | – | > 100 µM | – | – | > 100 µM | – | > 100 µM | – | > 100 µM | – | 24.7 µM | – | 34.9 µM | – | > 100 µM | – |
| CCN(CC)CCCC(CNc1ccnc2cc(Cl)ccc12)c1ccc(Cl)cc1 (stereo not drawn) | 0.535 µM and 0.984 µM | 2.1 µM and 2.62 µM | 2.06 µM and 1.63 µM | 4.2 µM and 3.42 µM | 1.31 µM and 0.705 µM | 2.89 µM and 2.07 µM | 1.42 µM and 0.834 µM | 2.96 µM and 2.21 µM | 3.18 µM and 2.85 µM | 1.96 µM and 1.92 µM | 4.78 µM and 4.3 µM | 0.337 µM and 0.307 µM | 1.38 µM and 1.09 µM | 1.38 µM and 0.212 µM | 2.94 µM and 0.466 µM | 1.19 µM and 0.204 µM | 2.55 µM and 0.462 µM | 1.71 µM and 1.2 µM | 5.17 µM and 4.6 µM | 1.58 µM and 1.4 µM |
| CC(O)CCC(=O)c1ccoc1 (stereo not drawn) | – | > 10000 µM | – | > 7450 µM | – | > 10000 µM | – | > 10000 µM | 9650 µM | – | 9930 µM | – | > 10000 µM | – | > 8250 µM | – | > 10000 µM | – | > 9360 µM | – |
| Cn1nc(N)c2cc([C@@H]3Nc4ccc5[nH]ncc5c4[C@H]4C5CCC(C5)[C@@H]34)ccc21 (stereo partly drawn) | 0.425 µM | 14 µM | 0.699 µM | > 100 µM | 0.593 µM | 41.1 µM | 1.5 µM | 13.4 µM | 3.27 µM | 0.612 µM | 21.2 µM | 0.426 µM | > 100 µM | 0.431 µM | 13 µM | 0.166 µM | 0.437 µM | 0.377 µM | > 43.4 µM | 0.152 µM |
| Cc1ccc(C)c(C2=C(c3cn(C)c4ccccc34)C(=O)NC2=O)c1 | 9.33 µM | > 25 µM | 18.9 µM | > 25 µM | 9.15 µM | > 25 µM | > 25 µM | > 25 µM | > 25 µM | > 25 µM | > 25 µM | 5.05 µM | > 21 µM | 7.36 µM | > 25 µM | 24 µM | > 25 µM | 5.42 µM | > 25 µM | 1.15 µM |
| Clc1nc2ccccc2nc1CI | 2.41 µM | 6.46 µM | 19.2 µM | 38.6 µM | 1.78 µM | 3.27 µM | 19.1 µM | 35.9 µM | 30.1 µM | 4.15 µM | 15.6 µM | 0.638 µM | – | 2.17 µM | 4.06 µM | 2.35 µM | 6.61 µM | 0.93 µM | 4.99 µM | 9.39 µM |
| CNC(=O)N(C)N=NCCCl | – | > 100 µM | – | > 100 µM | – | > 100 µM | – | > 100 µM | > 100 µM | – | > 100 µM | – | > 100 µM | – | > 100 µM | – | > 100 µM | – | > 100 µM | – |
| C=C1C(=O)OC2CCN3CC=C(COC(=O)C(C)(O)C4(CO4)C1C)C23 (stereo not drawn) | – | > 100 µM | – | > 100 µM | – | > 100 µM | – | > 100 µM | – | – | > 100 µM | – | > 100 µM | – | > 100 µM | – | > 100 µM | – | > 100 µM | – |
| S=C1NC2(CCCCCC2)NN1c1ccccc1 | – | > 100 µM | – | > 100 µM | – | > 100 µM | – | – | > 100 µM | – | > 100 µM | – | > 100 µM | – | 0.431 µM | – | > 100 µM | – | > 64.9 µM | – |
| COc1cc(C#CC(=O)OC/C=C/c2ccc3c(c2)OCO3)cc(OC)c1OC | – | 78.8 µM | – | > 100 µM | – | > 100 µM | – | 49.2 µM | – | – | > 100 µM | – | 40.5 µM | – | 35.7 µM | – | 38.1 µM | – | 49.3 µM | – |
| CC(C)N(C(=O)C12C3C4C5(C#N)C3C1(C#N)C5C42I)C(C)C (stereo not drawn) | – | > 100 µM | – | > 100 µM | – | > 100 µM | – | > 100 µM | > 100 µM | – | > 100 µM | – | 38.2 µM | – | > 65.1 µM | – | – | – | > 59.7 µM | – |
| C=C(CNCc1ccccc1)c1ccc(C(=O)Nc2ccccc2N)cc1 | 36.5 µM | > 100 µM | 7.34 µM | > 100 µM | 9.79 µM | 84.3 µM | 2.22 µM | 5.4 µM | 93 µM | 0.583 µM | 14.8 µM | 3.54 µM | > 100 µM | 4.9 µM | 38.5 µM | 5.24 µM | 27.7 µM | – | – | 38.2 µM |

Source: PubChem BioAssay (NCI)
